# Source: patent publication US20080220140A1, “USE OF PROPENYLPHENYL GLYCOSIDES FOR ENHANCING SWEET SENSORY IMPRESSIONS” (SYMRISE GmbH & Co. KG, priority 2007, published 2008)
# Key:
# [1] = Enhancement of the sweet impression of sucrose-containing yoghurt, rated 1-10 by a group of experts; type: in vivo; conditions: 200 ppm in yoghurt (0.5% fat content), sucrose 5%
# Method: In order to quantify the enhancement of a sweet impression by addition of the propenylphenyl glycosides to be used according to the invention, the sweetness of sucrose-containing yoghurt (0.5% fat content) and of samples containing the same amount of sucrose and in addition a specific concentration of the propenylphenyl glycosides of formula (I) to be used according to the invention was determined by a group of experts (rating 1 [extremely slightly sweet] to 10 [extremely sweet]). Evaluation was carried out by calculating the enhancement (in %) of the sweetness impression from the average values of the assessments of the yoghurts containing sucrose (a) or sucrose and propenylphenyl glycoside (b).
# [2] = Low-fat yoghurts with reduced sugar, sensory duo test with 16 panellists; type: in vivo; conditions: yoghurt 0.1% fat, 8% versus 10% sucrose; compound 1 0.015%, hesperetin 0.01%
# Method: Comparison preparation with sugar (A) Comparison preparation with reduced sugar content […] Preparations according to the invention with reduced sugar content and compound 1 (C) Comparison preparation with reduced sugar content and hesperetin (D)
# The ingredients were mixed and cooled at 5° C.
Compound,"% Enhancement of the sweetness impression ([1]; (16/10), p < 0.05)",Sweetness impression (1-10) b) with ([1]; rating 1 extremely slightly sweet to 10 extremely sweet),Compensation of the loss of sweetness as a result of sugar reduction [2]
"C=CCc1ccc(O[C@@H]2O[C@H](CO)[C@@H](O)[C@H](O)[C@H]2O)cc1 [compound 1, 1-O-[4-(propen-2-enyl)phenyl]-D-glucopyranoside]",+24%,4.9 ± 1.4,
"COc1ccc(C2CC(=O)c3c(O)cc(O)cc3O2)cc1O (stereo not drawn) [hesperetin, reference compound]",,,less good results
